From PMC9705844, “Inhibitory Activity of 4-O-Benzoyl-3′-O-(OMethylsinapoyl) Sucrose from Polygala tenuifolia on Escherichia coli β-Glucuronidase” (Journal of Microbiology and Biotechnology, 2021)

How the values were obtained:
[1] = target: T1, β-glucuronidase (Escherichia coli, UniProt P05804); assay: PNPG hydrolysis assay at […] nm with commercial enzyme; positive control; assay type: biochemical
T1 construct: gene uidA

[2] = target: T1, β-glucuronidase; assay: PNPG hydrolysis assay at […] nm with commercial enzyme; Lineweaver-Burk and secondary plots (IC50 […]); assay type: biochemical

T1 sequence (P05804 whole entry): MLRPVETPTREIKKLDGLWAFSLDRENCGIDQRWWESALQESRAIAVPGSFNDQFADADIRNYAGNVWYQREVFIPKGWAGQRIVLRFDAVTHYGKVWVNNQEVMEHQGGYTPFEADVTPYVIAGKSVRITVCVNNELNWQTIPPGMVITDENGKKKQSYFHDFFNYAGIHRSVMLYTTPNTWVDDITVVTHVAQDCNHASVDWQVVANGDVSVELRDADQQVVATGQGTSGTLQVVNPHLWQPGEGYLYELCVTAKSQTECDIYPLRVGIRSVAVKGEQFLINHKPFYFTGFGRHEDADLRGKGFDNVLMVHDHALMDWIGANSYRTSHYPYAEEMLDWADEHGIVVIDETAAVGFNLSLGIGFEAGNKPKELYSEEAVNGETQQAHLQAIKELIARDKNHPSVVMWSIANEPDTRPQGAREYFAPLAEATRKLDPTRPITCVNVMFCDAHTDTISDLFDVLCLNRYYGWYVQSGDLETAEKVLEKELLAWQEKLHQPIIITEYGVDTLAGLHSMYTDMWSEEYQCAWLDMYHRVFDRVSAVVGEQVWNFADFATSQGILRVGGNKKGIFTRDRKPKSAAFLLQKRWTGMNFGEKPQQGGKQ

Row | SMILES | IC50 [1] [µM] | Ki [2] [µM]
1 | O=C(O)[C@@H](O)[C@H]1OC(=O)[C@H](O)[C@H]1O [DSA, D-saccharic acid 1,4-lactone] | 19.6 ± 2.4 | 
2 | COc1cc(/C=C/C(=O)O[C@H]2[C@H](O)[C@@H](CO)O[C@@]2(CO)O[C@H]2O[C@H](CO)[C@@H](OC(=O)c3ccccc3)[C@H](O)[C@H]2O)cc(OC)c1OC [compound 3, 4-O-Benzoyl-3′-O-(O-methylsinapoyl) sucrose] |  | 13.4
